Values quoted from earlier work as cited in patent US20080160083A1, “COMPOSITION AND METHOD FOR TREATMENT OF PREMENSTRUAL SYMPTOMS” (priority 2007, published 2008).

What was measured:
[1] = women taking daily vitamin B6 supplements for PMS whose blood levels of B6 were above normal; Dalton, Lancet 1985
[2] = all adults; Institute of Medicine 1998

neuropathy present (number of women) [1]: 23 of 58
SMILES: Cc1ncc(CO)c(CO)c1O [vitamin B6, 4,5-bis(hydroxymethyl)-2-methylpyridin-3-ol]
upper tolerable intake level (UL) [2]: 100 mg per day
